33 compounds from patent US9694016B2 (Novartis AG, priority 2013, dated 2017) can be followed below.

Sequence of b-Raf (V600E) (P15056 whole entry V600E): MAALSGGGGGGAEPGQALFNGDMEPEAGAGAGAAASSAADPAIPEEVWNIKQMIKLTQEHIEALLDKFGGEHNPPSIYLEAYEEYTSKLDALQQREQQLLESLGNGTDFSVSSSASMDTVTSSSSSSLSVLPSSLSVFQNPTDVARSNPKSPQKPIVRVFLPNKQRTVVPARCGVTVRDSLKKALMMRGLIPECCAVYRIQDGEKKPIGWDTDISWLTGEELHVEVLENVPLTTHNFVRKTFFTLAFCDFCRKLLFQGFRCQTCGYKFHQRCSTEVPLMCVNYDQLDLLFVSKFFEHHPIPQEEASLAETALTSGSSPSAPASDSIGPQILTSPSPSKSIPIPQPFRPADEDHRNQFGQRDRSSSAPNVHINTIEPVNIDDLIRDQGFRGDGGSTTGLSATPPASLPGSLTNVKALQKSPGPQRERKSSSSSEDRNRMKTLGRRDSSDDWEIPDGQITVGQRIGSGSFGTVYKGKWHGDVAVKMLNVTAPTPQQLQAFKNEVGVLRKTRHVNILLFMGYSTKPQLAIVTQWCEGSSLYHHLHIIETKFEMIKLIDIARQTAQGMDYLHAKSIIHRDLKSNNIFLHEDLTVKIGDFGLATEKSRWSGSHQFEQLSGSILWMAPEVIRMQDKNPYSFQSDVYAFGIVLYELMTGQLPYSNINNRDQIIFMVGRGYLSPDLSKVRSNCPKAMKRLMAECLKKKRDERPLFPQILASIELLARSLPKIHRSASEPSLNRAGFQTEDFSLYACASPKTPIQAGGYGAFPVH

The first assay addresses b-Raf (V600E) (Homo sapiens (Human), UniProt P15056, V600E). As to conditions: read-out: b-Raf IC-50.
Turning to `Cc1ccc(NC(=O)c2cc(CN(C)C)cc(C(F)(F)F)c2)cc1-c1cc(N2CCOCC2)c(=O)n(C)c1` [Example 173, 3-((dimethylamino)methyl)-N-(4-methyl-3-(1-methyl-5-morpholino-6-oxo-1,6-dihydropyridin-3-yl)phenyl)-5-(trifluoromethyl)benzamide], the IC50 is 9.2 nM.

On to `COc1cc(-c2cc(NC(=O)c3cccc(C(F)(F)F)c3)ccc2C)nc(N2CCOCC2)c1` [Example 196, N-(3-(4-methoxy-6-morpholinopyridin-2-yl)-4-methylphenyl)-3-(trifluoromethyl)benzamide], for which the IC50 worked out at 1.5 nM.

The assay is the same for the next values; noted with them: read-out: b-Raf IC-50; Table 2; AlphaScreen, 3 hours reaction.
As for `Cc1ccc(C(=O)Nc2cccc(C(F)(F)F)c2)cc1-c1cc(N2CCOCC2)c(=O)n(C)c1` [Example 137, 4-methyl-3-(1-methyl-5-morpholino-6-oxo-1,6-dihydropyridin-3-yl)-N-(3-(trifluoromethyl)phenyl)benzamide], the IC50 was 7.1 nM.

Consider `Cc1ncc(NC(=O)c2cccc(C(F)(F)F)c2)cc1-c1cc(N2CCOCC2)c(=O)n(C)c1` [Example 138, N-(1′,2-dimethyl-5′-morpholino-6′-oxo-1′,6′-dihydro-[3,3′-bipyridin]-5-yl)-3-(trifluoromethyl)benzamide], for which the IC50 is 4.7 nM.

With `Cc1ncc(NC(=O)c2ccnc(C(C)(C)C#N)c2)cc1-c1cc(N2CCOCC2)c(=O)n(C)c1` [Example 141, 2-(2-cyanopropan-2-yl)-N-(1′,2-dimethyl-5′-morpholino-6′-oxo-1′,6′-dihydro-[3,3′-bipyridin]-5-yl)isonicotinamide], the IC50 was determined as 47.5 nM.

On to `Cc1ncc(NC(=O)c2cccc(C(F)(F)F)c2)cc1-c1cnc(OCCO)c(N2CCOCC2)c1` [Example 145, N-(6′-(2-hydroxyethoxy)-2-methyl-5′-morpholino-[3,3′-bipyridin]-5-yl)-3-(trifluoromethyl)benzamide], for which the IC50 is 3 nM.

`Cc1ccc(NC(=O)c2cccc(C(F)(F)F)c2)cc1-c1cc(N2CCOCC2)c(=O)n(CC#N)c1` [Example 147, N-(3-(1-(cyanomethyl)-5-morpholino-6-oxo-1,6-dihydropyridin-3-yl)-4-methylphenyl)-3-(trifluoromethyl)benzamide]: the IC50 was 1 nM.

Turning to `CCn1cc(-c2cc(NC(=O)c3ccnc(C(C)(C)C#N)c3)ccc2C)cc(N2CCOCC2)c1=O` [Example 160, 2-(2-cyanopropan-2-yl)-N-(3-(1-ethyl-5-morpholino-6-oxo-1,6-dihydropyridin-3-yl)-4-methylphenyl)isonicotinamide], the IC50 is 10.6 nM.

In the case of `CCOc1ncc(-c2cc(NC(=O)c3ccnc(C(C)(C)C#N)c3)ccc2C)cc1N1CCOCC1` [Example 161, 2-(2-cyanopropan-2-yl)-N-(3-(6-ethoxy-5-morpholinopyridin-3-yl)-4-methylphenyl)isonicotinamide], the IC50 stood at 2.9 nM.

On to `Cc1ccc(NC(=O)c2cccc(C(F)(F)F)c2)cc1-c1cc(N2CCOCC2)c(=O)n(C)n1` [Example 164, N-(4-methyl-3-(1-methyl-5-morpholino-6-oxo-1,6-dihydropyridazin-3-yl)phenyl)-3-(trifluoromethyl)benzamide], for which the IC50 turned out to be 1.7 nM.

As for `Cc1ncc(NC(=O)c2ccnc(C(C)(C)C#N)c2)cc1-c1cc(N2CCOCC2)c(=O)n(C)n1` [Example 167, 2-(2-cyanopropan-2-yl)-N-(6-methyl-5-(1-methyl-5-morpholino-6-oxo-1,6-dihydropyridazin-3-yl)pyridin-3-yl)isonicotinamide], the IC50 was 53.4 nM.

On to `Cc1ccc(NC(=O)c2ccnc(S(C)(=O)=O)c2)cc1-c1cc(N2CCOCC2)c(=O)n(C)c1` [Example 184, N-(4-methyl-3-(1-methyl-5-morpholino-6-oxo-1,6-dihydropyridin-3-yl)phenyl)-2-(methylsulfonyl)isonicotinamide], for which the IC50 stood at 3.1 nM.

With `Cc1ccc(NC(=O)c2cccc(C(F)F)c2)cc1-c1cc(N2CCOCC2)c(=O)n(C)n1` [Example 190, 3-(difluoromethyl)-N-(4-methyl-3-(1-methyl-5-morpholino-6-oxo-1,6-dihydropyridazin-3-yl)phenyl)benzamide], the IC50 was determined as 2.2 nM.

With `Cc1ccc(NC(=O)c2ccnc(C(C)(C)C#N)c2)cc1-c1cc(N2CCOCC2)c(=O)n(C)n1` [Example 191, 2-(2-cyanopropan-2-yl)-N-(4-methyl-3-(1-methyl-5-morpholino-6-oxo-1,6-dihydropyridazin-3-yl)phenyl)isonicotinamide], the IC50 amounted to 5.4 nM.

Turning to `COC(=O)NCCn1cc(-c2cc(NC(=O)c3cccc(C(F)(F)F)c3)cnc2C)cc(N2CCOCC2)c1=O` [Example 193, methyl(2-(2′-methyl-5-morpholino-6-oxo-5′-(3-(trifluoromethyl)benzamido)-[3,3′-bipyridin]-1(6H)-yl)ethyl)carbamate], the IC50 stood at 100 nM.

For the compound `Cc1ccc(NC(=O)c2cccc(C(F)(F)F)c2)cc1-c1cnc(N2CCOCC2)s1` [Example 198, N-(4-methyl-3-(2-morpholinothiazol-5-yl)phenyl)-3-(trifluoromethyl)benzamide], the IC50 was 0.8 nM.

`Cc1ncc(NC(=O)c2cccc(C(F)(F)F)c2)cc1-c1cnc(C#N)c(N2CCOCC2)c1` [Example 222, N-(6′-cyano-2-methyl-5′-morpholino-[3,3′-bipyridin]-5-yl)-3-(trifluoromethyl)benzamide]: the IC50 is 3.8 nM.

As for `Cc1ccc(NC(=O)c2ccnc(C(C)(C)C#N)c2)cc1-c1cnc(OC(F)F)c(N2CCOCC2)c1` [Example 223, 2-(2-cyanopropan-2-yl)-N-(3-(6-(difluoromethoxy)-5-morpholinopyridin-3-yl)-4-methylphenyl)isonicotinamide], the IC50 was determined as 2.2 nM.

In the case of `Cc1ncc(NC(=O)c2cccc(C(F)(F)F)c2)cc1-c1cnc(OC(F)F)c(N2CCOCC2)c1` [Example 224, N-(6′-(difluoromethoxy)-2-methyl-5′-morpholino-[3,3′-bipyridin]-5-yl)-3-(trifluoromethyl)benzamide], the IC50 was 2.7 nM.

`Cc1ccc(NC(=O)c2ccnc(C(C)(C)O)c2)cc1-c1cnc(OC(F)F)c(N2CCOCC2)c1` [Example 226, N-(3-(6-(difluoromethoxy)-5-morpholinopyridin-3-yl)-4-methylphenyl)-2-(2-hydroxypropan-2-yl)isonicotinamide]: the IC50 was determined as 1.9 nM.

For `Cc1ncc(NC(=O)c2cccc(C(F)(F)F)c2)cc1-c1cnc(OCC(F)F)c(N2CCOCC2)c1` [Example 227, N-(6′-(2,2-difluoroethoxy)-2-methyl-5′-morpholino-[3,3′-bipyridin]-5-yl)-3-(trifluoromethyl)benzamide], the IC50 is 1.8 nM.

Regarding `Cc1ncc(NC(=O)c2ccnc(C(C)(C)C#N)c2)cc1-c1cnc(OCC(F)F)c(N2CCOCC2)c1` [Example 228, 2-(2-cyanopropan-2-yl)-N-(6′-(2,2-difluoroethoxy)-2-methyl-5′-morpholino-[3,3′-bipyridin]-5-yl)isonicotinamide], the IC50 is 4.7 nM.

In the case of `CCOc1ncc(-c2cc(NC(=O)c3cccc(S(C)(=O)=O)c3)ccc2C)cc1N1CCOCC1` [Example 229, N-(3-(6-ethoxy-5-morpholinopyridin-3-yl)-4-methylphenyl)-3-(methylsulfonyl)benzamide], the IC50 was 0.7 nM.

Turning to `CCOc1ncc(-c2cc(NC(=O)c3cccc(-c4nnco4)c3)ccc2C)cc1N1CCOCC1` [Example 230, N-(3-(6-ethoxy-5-morpholinopyridin-3-yl)-4-methylphenyl)-3-(1,3,4-oxadiazol-2-yl)benzamide], the IC50 was 1.4 nM.

`CCOc1ncc(-c2cc(NC(=O)c3cccc(C(F)F)c3)ccc2C)cc1N1CCOCC1` [Example 231, 3-(difluoromethyl)-N-(3-(6-ethoxy-5-morpholinopyridin-3-yl)-4-methylphenyl)benzamide]: the IC50 worked out at 0.4 nM.

Consider `CCOc1ncc(-c2cc(NC(=O)c3ccnc(S(C)(=O)=O)c3)ccc2C)cc1N1CCOCC1` [Example 232, N-(3-(6-ethoxy-5-morpholinopyridin-3-yl)-4-methylphenyl)-2-(methylsulfonyl)isonicotinamide], for which the IC50 stood at 0.8 nM.

In the case of `CCOc1ncc(-c2cc(NC(=O)c3ccnc(C(C)(F)F)c3)ccc2C)cc1N1CCOCC1` [Example 233, 2-(1,1-difluoroethyl)-N-(3-(6-ethoxy-5-morpholinopyridin-3-yl)-4-methylphenyl)isonicotinamide], the IC50 stood at 0.6 nM.

Consider `CCOc1ncc(-c2cc(NC(=O)c3cc(C(F)(F)F)c(=O)n(CC)c3)ccc2C)cc1N1CCOCC1` [Example 234, N-(3-(6-ethoxy-5-morpholinopyridin-3-yl)-4-methylphenyl)-1-ethyl-6-oxo-5-(trifluoromethyl)-1,6-dihydropyridine-3-carboxamide], for which the IC50 came to 1 nM.

Regarding `CCOc1ncc(-c2cc(NC(=O)c3cccc(C(F)(F)F)c3)ccc2C)cc1N1CCOCC1` [Example 235], the IC50 was 1 nM.

With `CCOc1ncc(-c2cc(NC(=O)c3ccnc(C(F)F)c3)ccc2C)cc1N1CCOCC1` [Example 237, 2-(difluoromethyl)-N-(3-(6-ethoxy-5-morpholinopyridin-3-yl)-4-methylphenyl)isonicotinamide], the IC50 was determined as 0.4 nM.

For the compound `CCOc1ncc(-c2cc(C(=O)Nc3cccc(S(C)(=O)=O)c3)ccc2C)cc1N1CCOCC1` [Example 238, 3-(6-ethoxy-5-morpholinopyridin-3-yl)-4-methyl-N-(3-(methylsulfonyl)phenyl)benzamide], the IC50 worked out at 0.9 nM.

`CCOc1ncc(-c2cc(NC(=O)c3ccnc(C(C)(C)C#N)c3)cnc2C)cc1N1CCOCC1` [Example 239, 2-(2-cyanopropan-2-yl)-N-(6′-ethoxy-2-methyl-5′-morpholino-[3,3′-bipyridin]-5-yl)isonicotinamide]: the IC50 stood at 5.6 nM.

Turning to `CCOc1ncc(-c2cc(NC(=O)c3ccnc(C(C)(C)O)c3)cnc2C)cc1N1CCOCC1` [Example 240, N-(6′-ethoxy-2-methyl-5′-morpholino-[3,3′-bipyridin]-5-yl)-2-(2-hydroxypropan-2-yl)isonicotinamide], the IC50 came to 15.3 nM.
